Results on four compounds are retold here after paper PMC8777805, “Interactions of Nereistoxin and Its Analogs with Vertebrate Nicotinic Acetylcholine Receptors and Molluscan ACh Binding Proteins” (Marine Drugs, 2022).

Broadly, the IC50 is the concentration that inhibits the measured activity by half.

Like-named read-outs stand apart in the source and are kept apart here.

The target of one data set is T1, rat brain α7 nAChR (Rattus norvegicus, UniProt Q05941).
T1 construct: from tissue; host or cells: whole rat brain membranes
Nature of the data set: [125I]-α-BTX displacement, rat brain membranes. It is filed as binding.

Data set [1] deals with T2, Torpedo electric organ muscle type nAChR (Tetronarce californica, UniProt P02710+P02714+P02718).
T2 construct: from tissue; host or cells: Torpedo californica electric organ washed membranes
Nature of the data set: [125I]-α-BTX displacement, Torpedo electric organ membranes. It is filed as binding.

Data set [2] concerns the target T3, A. californica BP Y55W mutant (Aplysia californica, UniProt Q8WSF8, Y72W).
T3 construct: made in house
Nature of the data set: [3H]-epibatidine scintillation proximity binding assay, Ac AChBP Y55W mutant. To be noted: inhibition of [3H]-epibatidine binding; read-out: IC50 ± SEM, Ac BP Y55W. The protocol: (§1) The AChBP proteins were expressed and purified according to Hansen et al.. Determination of compound affinity for an AChBP utilized a modification of the Scintillation Proximity Assay reported previously. Briefly, the AChBP constructs (0.5–1.0 nM final concentration of binding sites) were combined with polyvinyltoluene anti-mouse SPA scintillation beads (0.17 mg/mL final concentration, Perkin Elmer), monoclonal anti-FLAG M2 antibody from mouse 1:8000 dilution (Sigma), and 0.1 M NaPO4 buffer, pH 7.0. This cocktail was distributed to a 96-well plate and incubated with either vehicle (total binding), unknown sample (10 µM final concentration), or a saturating concentration (10 µM) of the known competitive ligand methyllycaconitine to determine the nonspecific binding. The radioligand (±)-[^3H]-epibatidine (Perkin Elmer, 5 nM final concentration) was added to each well with varying the concentrations of competing ligand and allowed to incubate at room temperature for 1 hr. Plates were read on a 1450 MicroBeta TriLux liquid scintillation counter (Wallac) and the output normalized. All measurements were conducted in duplicate a minimum of 3 times. The IC50 values were calculated using GraphPad Prism version 4.02 (GraphPad Software, 2006, San Diego, CA, USA, www.graphpad.com).
On the technique in general: SPA uses beads or plates that emit light when radiolabelled molecules are held near them.

The next data set concerns the target T4, Lymnaea stagnalis AChBP (Lymnaea stagnalis, UniProt P58154).
T4 construct: made in house
Nature of the data set: [3H]-epibatidine scintillation proximity binding assay, Ls AChBP. As to conditions: inhibition of [3H]-epibatidine binding; read-out: IC50 ± SEM, Ls BP. The protocol:
as §1

For a further data set, the target named is T5, rat brain α4β2 nAChRs (Rattus norvegicus, UniProt P09483+P12390).
T5 construct: from tissue; host or cells: whole rat brain membranes
Nature of the data set: [3H]-cytisine displacement, rat brain membranes. It is filed as binding. The protocol: Rat brain membranes (100 μg of protein) expressing […] α4β2 nAChRs were incubated with 0.5 nM [^3H]-cytisine in a final volume of 500 µL binding saline for 4 h at 5 °C. […] Ten different concentrations of the experimental compound were usually tested in quadruplicate. Nonspecific binding was measured in the presence of 1 mM (S)-nicotine hydrogen tartrate (Sigma-Aldrich). Data were fitted using GraphPad Prism software (Version 4 GraphPad Software, San Diego, CA, USA) by nonlinear regression analyses to a sigmoidal one-site model with variable slope.

Data set [3] deals with T6, Aplysia californica AChBP (Aplysia californica, UniProt Q8WSF8).
T6 construct: made in house
Nature of the data set: [3H]-epibatidine scintillation proximity binding assay, Ac AChBP. To be noted: for IC50: inhibition of [3H]-epibatidine binding, read-out: IC50 ± SEM, Ac BP. The protocol:
as §1

A further data set relates to molluscan AChBPs. Nature of the data set: Preincubation with toxin before [3H]-epibatidine addition, AChBPs. It is filed as binding. The protocol:
as §1

Data set [4] addresses T7, human α4β2 nAChRs expressed in TsA201 cells (Homo sapiens, UniProt P17787+P43681).
T7 construct: expressed in transfected cells; host or cells: TsA201 cells
Nature of the data set: FlexStation membrane potential functional assay. It is filed as cell-based. To be noted: for activation (membrane depolarization) of human α4β2 nAChRs: MeNTX up to 300 µM, relative to 5 µM ACh; for inhibition of ACh activation of human α4β2 nAChRs: response to 5 μM acetylcholine. The protocol: TsA201 cells expressing human α4β2 were maintained in media consisting of Dulbecco’s Modified Eagle medium supplemented with 10% FBS, 100 units/mL penicillin and 100 μg/mL streptomycin, 2 mM L-glutamine, 0.5 mg/mL zeocin, and 0.6 mg/mL geneticin. Cells were grown in 75 cm^2 culture flasks, which were housed in a humidified incubator (Fisher Scientific, Atlanta, GA, USA at 37 °C in an atmosphere of 5% CO2. They were grown to around 80–90% confluence after harvesting with 0.25% trypsin and being split weekly at a subcultivation ratio of between 1:6 and 1:10.
Our experimental protocol was based on the initial study of Fitch et al.. Cells were seeded at a density of roughly 5 × 10^4 to 10^5 cells/well in 96-well flat-bottom black wall culture plates coated with 50 μg /mL poly-D-lysine hydrobromide (Sigma-Aldrich, 70–150 kDa) and grown overnight in 100 μL culture medium. A proprietary membrane potential dye obtained from Molecular Devices (San Diego, CA, USA) was prepared by dissolving one bottle of dye into 30 mL of Hanks Saline (pH = 7.4) containing 20 mM HEPES buffer. The cells were incubated with 100 μL of dye for 30 min at 37 °C prior to the robotically controlled concentration-response experiment. Serial dilutions of a compound for dose-response analysis were prepared in 96-well plates by evaporation of a methanolic stock solution and then reconstituted in the appropriate volume of Hanks saline. Fluid transfer and readings were performed by a FlexStation fluorimeter (Molecular Devices). Excitation and emission wavelengths were set to 530 nm and 565 nm with a cutoff of 550 nm. The first 17 s were used as a basal reading.

Data set [5] deals with phencyclidine binding site of Torpedo nAChR ion channel. Nature of the data set: [3H]-TCP binding to Torpedo membranes. To be noted: results not shown. An excerpt: We have not yet deciphered the mechanism by which this small molecule can be an nAChR antagonist. […] We did observe that NTX inhibited [^3H]-TCP (radiolabelled analog of phencyclidine) binding to the Torpedo membranes, but this only occurred at NTX concentrations that were ~10X higher than were required to inhibit α-BTX binding (results not shown). Since most competitive antagonists are relatively large rigid molecules, elucidating the molecular mechanism by which NTX, an extremely small molecule, acts as an nAChR antagonist merits further investigation.

The target in data set [6] is T8, L. stagnalis AChBP C187S mutant (Lymnaea stagnalis, UniProt P58154, C206S).
T8 construct: made in house
Nature of the data set: [3H]-epibatidine scintillation proximity binding assay, Ls AChBP C187S mutant. To be noted: for IC50: inhibition of [3H]-epibatidine binding. The protocol: as §1

Details of data set [7]: method as in earlier work. To be noted: cited from earlier work.
Where [8] appears, read: rat brain membranes, [125I]-α-BTX displacement, mean of n experiments, read-out: IC50 ± SEM, α7.
Where [9] appears, read: [125I]-α-BTX displacement, mean of n experiments, read-out: IC50 ± SEM, Torpedo electric organ.
Setting [10] is: rat brain membranes, [3H]-cytisine displacement, mean of n experiments, read-out: IC50 ± SEM, α4β2.
The mark [11] stands for this setting: single [125I]-αBTX displacement experiment.
The mark [12] stands for this setting: single [125I]-αBTX displacement experiment, read-out: α7 IC50 (representative experiment, Figure 6).
Setting [13] is: Torpedo IC50 (single experiment, Figure 7 left), 30 min preincubation before BTX.
Setting [14] is: single [3H]-cytisine displacement experiment.
The mark [15] stands for this setting: single [3H]-cytisine displacement experiment, read-out: α4β2 IC50 (individual experiment, Figure 3).

Regarding `C[N+](C)(C)C1CSCSC1` [TMA-DT, 5-trimethylamino-1,3-dithiane], the 50% inhibitory concentration (IC50) worked out at 90 ± 4.3 µM at rat brain α7 nAChR (setting [8]); 150 µM in data set [1] (setting [9]); 18 ± 2.8 µM in data set [2]; 3.7 ± 0.39 µM at Lymnaea stagnalis AChBP; 290 ± 60 µM at rat brain α4β2 nAChRs (setting [10]); 20 ± 2 µM in [3].

As to `CN(C)C1CSCSC1` [DMA-DT, 5-dimethylamino-1,3-dithiane], the concentration for half-maximal inhibition (IC50) on rat brain α7 nAChR (setting [8]) was 640 ± 220 µM; in data set [1] (setting [9]), > 500 µM; in data set [2] it was 41.4 ± 4.4 µM; on Lymnaea stagnalis AChBP, 22 ± 2.4 µM; on rat brain α4β2 nAChRs (setting [10]), 160 ± 96 µM; in data set [3], 28 ± 0.27 µM.

In the case of `CN(C)C1CSSC1` [NTX, 4-dimethylamino-1,2-dithiolane, reference compound], the IC50 on rat brain α7 nAChR (setting [8]) came out at 390 ± 8.6 µM; on rat brain α7 nAChR (setting [12]), 826 µM; in data set [1] (setting [13]) it was 254 µM; in [1] (setting [9]) it was 230 ± 71 µM; in data set [6], 160 µM; in data set [2] it was 110 ± 25 µM. Moreover, the half-maximal inhibitory concentration (IC50) on Lymnaea stagnalis AChBP turned out to be 140 ± 24 µM; on rat brain α4β2 nAChRs (setting [10]) it was 60 ± 22 µM; at rat brain α4β2 nAChRs (setting [15]) it was 81.6 µM; in data set [3], 71 ± 1.9 µM. Besides, the “α7 Hillslope (representative experiment, Figure 6)” value at rat brain α7 nAChR (setting [11]) is reported as -2.6. In addition, the “effect of 24 hr preincubation on inhibition of [3H]-epibatidine binding” value in the data set on molluscan AChBPs is “failed to detect any effect”. Also, in data set [4], the “activation (membrane depolarization) of human α4β2 nAChRs” value is on record as “no measurable depolarizing activity”. The “inhibition of ACh activation of human α4β2 nAChRs” value in data set [4] is listed as “inhibited ACh activation”. Besides, the “NTX concentrations inhibiting [3H]-TCP binding, higher than required to inhibit α-BTX binding” value in data set [5] is ~ 10 X. Further, the “α4β2 Hillslope (individual experiment, Figure 3)” value on rat brain α4β2 nAChRs (setting [14]) is -1.5. Further, the “dimethylamino pKa” value in [7] is on record as 7.2.

For the compound `C[N+](C)(C)C1CSSC1` [MeNTX, N-methylnereistoxin], the concentration for half-maximal inhibition (IC50) is 45 ± 2.3 µM on rat brain α7 nAChR (setting [8]); 89.4 µM on rat brain α7 nAChR (setting [12]); 11.2 µM in data set [1] (setting [13]); 9.3 ± 4.9 µM in data set [1] (setting [9]); 41 µM in data set [6]; 74 ± 5.2 µM in data set [2]. Further, the concentration for half-maximal inhibition (IC50) amounted to 163 ± 8.7 µM on Lymnaea stagnalis AChBP, 120 ± 13 µM at rat brain α4β2 nAChRs (setting [10]), 121 µM on rat brain α4β2 nAChRs (setting [15]) and 260 ± 71 µM in data set [3]. Besides, at rat brain α7 nAChR (setting [11]), the “α7 Hillslope (representative experiment, Figure 6)” value was -1.0. For the same compound, in the data set on molluscan AChBPs, the “effect of 24 hr preincubation on inhibition of [3H]-epibatidine binding” value is on record as “failed to detect any effect”. Further, in [4], the “activation (membrane depolarization) of human α4β2 nAChRs” value is “failed to activate”. For the same compound, in data set [4], the “inhibition of ACh activation of human α4β2 nAChRs” value was “inhibited ACh activation”. Further, the “affinity of Ls C187S mutant greater than for NTX” value in data set [6] (MeNTX versus NTX) is on record as ~ 4 fold. The “α4β2 Hillslope (individual experiment, Figure 3)” value at rat brain α4β2 nAChRs (setting [14]) is -1.5. Besides, the “affinity of Aplysia californica AChBP less than for NTX” value in [3] (MeNTX versus NTX) is ~ 3.5 fold.
